Here are results for three molecules from BindingDB's records for patent US10428104 (Pfizer Inc., 2019).

Protein arginine N-methyltransferase 5, sequence (O14744 whole entry): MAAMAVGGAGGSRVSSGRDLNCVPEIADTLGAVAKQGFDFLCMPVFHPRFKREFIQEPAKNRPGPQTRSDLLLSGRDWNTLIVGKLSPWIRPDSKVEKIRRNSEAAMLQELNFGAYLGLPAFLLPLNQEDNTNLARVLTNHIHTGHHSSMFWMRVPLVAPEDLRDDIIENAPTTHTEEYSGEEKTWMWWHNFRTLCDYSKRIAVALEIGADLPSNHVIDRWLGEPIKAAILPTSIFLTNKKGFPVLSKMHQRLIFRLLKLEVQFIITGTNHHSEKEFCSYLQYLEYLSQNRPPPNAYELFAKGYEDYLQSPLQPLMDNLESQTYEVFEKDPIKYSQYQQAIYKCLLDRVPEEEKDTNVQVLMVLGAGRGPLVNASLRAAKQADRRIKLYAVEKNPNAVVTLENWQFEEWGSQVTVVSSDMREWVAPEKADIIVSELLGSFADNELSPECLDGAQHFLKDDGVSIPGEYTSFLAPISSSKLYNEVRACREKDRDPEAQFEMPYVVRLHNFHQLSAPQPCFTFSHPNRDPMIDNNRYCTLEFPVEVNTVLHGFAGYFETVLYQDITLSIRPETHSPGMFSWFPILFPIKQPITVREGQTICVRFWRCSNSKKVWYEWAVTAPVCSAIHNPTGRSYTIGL

This test deals with Protein arginine N-methyltransferase 5 (Homo sapiens, UniProt O14744). The experiment in a line: PRMT5 assay. On the procedure:
Following dilution, 1 ul was added to an empty 96-well microtiter plate. PRMT5/MEP50 protein complex was combined with H4(1-21) peptide ([…]) in PRMT5 assay buffer (50 mM Tris pH 8.5, 50 mM NaCl, 5 mM MgCl2, 1 mM EDTA, 1 mM TCEP) and 44 ul was added to the microtiter plate containing compound. S-Adenosyl-L-methionine (SAM) was prepared by combining 3H labelled SAM with unlabelled SAM in PRMT5 assay buffer such that the final SAM concentration was 10 uM and the specific activity was 0.2 uCi/ul. The reaction was initiated by adding 5 ul of SAM stock to the microtiter plate. The final reaction conditions were 10 nM PRMT5/MEP50 complex, 200 nM peptide and 1 uM SAM. Following a 25 minute incubation at room temperature, the reaction was stopped with the addition of 100 uL of 20% TCA. The 3H-peptide product was captured using a 96-well filter plate (MSIPN4B, Millipore) and washed 5 times with PBS buffer. Scintillation fluid (100 ul) was added to the dried filter plate and counted in a liquid scintillation counter. IC50 values were determined by fitting the data to the standard 4-parameter dose response equation using Pfizer proprietary software.
Turning to `Cc1ncnc2c1ccn2[C@@H]1O[C@H]([C@@H](O)c2cnn(C)c2)[C@@H](O)[C@H]1O` [US10428104, Example 51], half-maximal inhibition (IC50) was put at 14700 nM.

With `Cc1ncnc2c1ccn2[C@@H]1O[C@H]([C@H](O)c2cccc3cc[nH]c23)[C@@H](O)[C@H]1O` [US10428104, Example 82], the IC50 (commonly the point on the concentration scale where inhibition reaches its midpoint) was 150 nM.

As for `Cc1ncnc2c1ccn2[C@@H]1O[C@H]([C@H](O)c2cnn(C)c2)[C@@H](O)[C@H]1O` [US10428104, Example 50], the half-maximal inhibitory concentration (IC50) stood at 50 nM.
